Results on 1 molecule are retold here after patent US20220187275A1, “SYSTEMS AND METHODS FOR DIRECTED FORMATION OF SIZE-CONTROLLED MULTI-CELLULAR STRUCTURES AND MEASUREMENT OF FORCES GENERATED BY THE SAME” (Forcyte Biotechnologies, Inc., priority 2019, published 2022).

This assay has as its system primary human airway smooth muscle cells. To be noted: 384-well plate, 24 hours serum starvation, histamine final concentration 100 micromolar, imaged at 1 minute intervals.

Method: To achieve the result depicted in FIG. 9, approximately 2000-2500 primary human airway smooth muscle cells were seeded into each of several wells on a microplate comprising 384 wells each with at least 60 MCS-supporting micropatterns deposed on their surface, in Ham's F12 medium supplemented with 10% serum and incubated for 5 days. The MCS-supporting micropatterns comprised a fluorophore-conjugated material comprising human fibrinogen conjugated to Alexa Fluor® 546 dye.
On day 5, MCS comprising the primary airway smooth muscle cells were observed within the wells. At this point, the serum-supplemented medium was replaced with serum-free medium to induce the contractile phenotype in the MCS. […] This step was taken to maximize contractile responsiveness to agonist in the next step.
After 24 hours of serum starvation, the microplate containing the MCS was imaged using a fluorescent microscope prior to any chemical addition in the fluorescent channel that corresponds to the fluorophore used in the MCS-supporting micropattern.

Take `NCCc1c[nH]cn1` [histamine]: the “contraction of the MCS (size of MCS-supporting micropatterns relative to baseline contracted state) after addition of agonist” value is recorded as “contraction”.
